The values below come from patent US20250122202A1, “EGFR INHIBITOR, PREPARATION METHOD THEREFOR AND USE THEREOF” (SHANDONG NEW TIME PHARMACEUTICAL CO., LTD., priority 2021, published 2025).

Test [1] deals with KC-1474:PC-9 EGFR-Del19/T790M/C797S. The experiment in a line: Cell proliferation inhibition experiment (CCK-8), KC-1474. Format: cell-based. The following applies: Homo sapiens, 72 h. The source says:
(§1) Inhibition rate %=[(A0−AS)/(A0−AC)]×100%.

For test [2], the target named is EGFR (D770-N771 ins NPG T790M) kinase (Homo sapiens (Human), UniProt P00533, INS770NPG/T790M). The experiment in a line: In-vitro enzyme experiment 1 (HTRF kinase assay), EGFR D770-N771 ins NPG T790M. It counts as biochemical. On the procedure:
The specific experiment was as follows: • 1. Preparation of 1× concentration kinase buffer • 1 volume of 5 times concentration of an enzyme buffer diluted with 4 volumes of distilled water; 5 mM magnesium chloride; 1 mM DTT; and 1 mM MnCl2. • 2. Test method of activity of compound • a) a compound diluent was transferred to each well of an assay plate (784075, Greiner) using Echo 550; • b) the assay plate was sealed and centrifuged at 1,000 g for 1 min; • c) 2×EGFR (D770-N771 ins NPG T790M) was prepared in a 1× kinase buffer; • d) 5 μl of the 2×EGFR (D770-N771 ins NPG T790M) was added to a 384-well assay plate (784075, Greiner); • e) the assay plate was centrifuged at 1,000 g for 30 s and incubated at room temperature for 10 min; • f) 2× TK-substrate-biotin (2 μM) and ATP were added to the 1× kinase buffer and mixed; • g) the reaction was started after adding 5 μl of the TK-substrate-biotin (2 μM) and ATP mixture; • h) the assay plate was centrifuged at 1,000 g for 30 s; and the assay plate was sealed and incubated at room temperature for 40 min; • i) 4× Sa-XL 665 was prepared in an HTRF detection buffer; • j) 5 μl of the Sa-XL 665 and 5 μl of a TK-antibody-cryptate were added to each well of the assay plate; • k) the assay plate was centrifuged at 1,000 g for 30 s and incubated at room temperature for 1 h; and • l) fluorescence signals at 615 nm (cryptate) and 665 nm (XL665) were read on an Envision 2104 reader. • 3. Data analysis • 3.1 Calculation of ratio (665/615 nm) of each well • 3.2 Calculation of inhibition rate
[formula] • 3.3 Calculation of IC50 value of compound and drawing dose-effect curve of compound • IC50 values were calculated using GraphPad 6.0 by applying a non-linear regression curve (dose-effect relationship-variable slope) of the logarithm of the compound concentration versus the inhibition rate.
Y=lowest value+(highest value−lowest value)/(1+10^((Log IC50−X)×slope)) • X: logarithm of inhibitor concentration; and Y: inhibition rate. • 3.4 Double test report • 3.4.1 After one tester completed a report, another tester again checked the report to ensure that data analysis was correct. • 3.4.2 The data was exported from the software and manually analyzed. • 3.4.2.1 The rate was converted into the inhibition rate. All the IC50 values were first calculated with the inhibition rate using Prism GraphPad 6.0. • 3.4.2.2 Then the IC50 value was recalculated using the ratio to check the accuracy of the analysis. • 3.4.3 The number of all the compounds was ensured to be correct.
Background: Time-resolved FRET reads energy transfer from a long-lived donor to a nearby acceptor.

In another test the test system is H1975 EGFR-L858R/T790M. The experiment in a line: Cell proliferation inhibition experiment (CCK-8), H1975. Format: cell-based. Conditions: Homo sapiens, NCI-H1975, 72 h.
From the text: as §1

Test [3] has as its system KC-0178:NCI-1975 EGFR-L858R/T790M/C797S. The test can be described thus: Cell proliferation inhibition experiment (CCK-8), KC-0178. Format: cell-based. Conditions: Homo sapiens, 72 h.
From the text: as §1

The target of test [4] is EGFR D770-N771 ins NPG kinase (Homo sapiens (Human), UniProt P00533, INS770NPG). The experiment in a line: In-vitro enzyme experiment 1 (HTRF kinase assay), D770-N771 ins NPG kinase. Format: biochemical.
Sequence of EGFR D770-N771 ins NPG kinase (P00533 other isoform, or with tags, fused parts or gaps del 1-668/ins NPG behind 770 limits assumed): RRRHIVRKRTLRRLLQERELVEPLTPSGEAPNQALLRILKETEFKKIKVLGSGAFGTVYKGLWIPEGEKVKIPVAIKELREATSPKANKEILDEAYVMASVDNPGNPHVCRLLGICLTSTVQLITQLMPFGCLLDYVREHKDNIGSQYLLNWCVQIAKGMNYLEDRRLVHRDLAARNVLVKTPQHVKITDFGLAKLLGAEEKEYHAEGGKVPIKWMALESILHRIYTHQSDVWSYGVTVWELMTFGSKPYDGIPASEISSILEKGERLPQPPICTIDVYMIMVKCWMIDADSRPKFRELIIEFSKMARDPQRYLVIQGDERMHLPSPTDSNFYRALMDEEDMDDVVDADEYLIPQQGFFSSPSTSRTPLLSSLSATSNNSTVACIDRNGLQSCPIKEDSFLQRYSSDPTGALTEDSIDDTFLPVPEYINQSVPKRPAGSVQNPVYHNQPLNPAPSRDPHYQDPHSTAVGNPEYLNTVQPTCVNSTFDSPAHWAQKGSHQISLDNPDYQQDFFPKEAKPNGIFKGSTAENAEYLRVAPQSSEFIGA
Test [5] has as its system KC-1362 BaF3-EGFR D770-N771 ins NPG cells. The experiment in a line: Anti-proliferative activity on KC-1362 BaF3-EGFR D770-N771 ins NPG cells. It counts as cell-based. Conditions: Ba/F3 EGFR.
The target in test [6] is EGFR-Del19/T790M/C797S kinase (Homo sapiens, UniProt P00533, C797S/T790M, form not given). The experiment in a line: In-vitro enzyme experiment 2 (HTRF kinase assay), EGFR Del19 T790M C797S. It counts as biochemical. Conditions: read-out: enzyme inhibition IC50 (nM) EGFR-Del19/T790M/C797S. The method, boiled down:
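Enzyme pre-incubated with compound for 10 min, then reaction started with biotinylated TK substrate (2 μM in the 2× mix) plus ATP. Ran 40 min at room temperature; phosphorylation detected by HTRF (Sa-XL665/TK-antibody-cryptate, 665/615 nm ratio). IC50 by variable-slope non-linear regression of inhibition versus log concentration.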

For a further test, the system named is PC-9 EGFR-Del19. The experiment in a line: Cell proliferation inhibition experiment (CCK-8), PC-9. Format: cell-based. Conditions: Homo sapiens, 72 h.
From the text: as §1

For a further test, the system named is A549 EGFR-WT. The test can be described thus: Cell proliferation inhibition experiment (CCK-8), A549. The following applies: Homo sapiens, A549, 72 h, read-out: cell proliferation inhibition IC50 (μM) A549, 72 h, CCK-8.

As a reminder, the pIC50 is the IC50 on a negative log10 scale, so that one unit is a factor of ten. The low end stands for a high IC50, the high end for a low IC50.

pIC50: −log10 of the molar value. Where two headings read alike, the source gives them in different places. Bounds are passed on as bounds.

Sequence of EGFR (D770-N771 ins NPG T790M) kinase (P00533 other isoform, or with tags, fused parts or gaps T790M/del 1-668/ins NPG behind 770 limits assumed): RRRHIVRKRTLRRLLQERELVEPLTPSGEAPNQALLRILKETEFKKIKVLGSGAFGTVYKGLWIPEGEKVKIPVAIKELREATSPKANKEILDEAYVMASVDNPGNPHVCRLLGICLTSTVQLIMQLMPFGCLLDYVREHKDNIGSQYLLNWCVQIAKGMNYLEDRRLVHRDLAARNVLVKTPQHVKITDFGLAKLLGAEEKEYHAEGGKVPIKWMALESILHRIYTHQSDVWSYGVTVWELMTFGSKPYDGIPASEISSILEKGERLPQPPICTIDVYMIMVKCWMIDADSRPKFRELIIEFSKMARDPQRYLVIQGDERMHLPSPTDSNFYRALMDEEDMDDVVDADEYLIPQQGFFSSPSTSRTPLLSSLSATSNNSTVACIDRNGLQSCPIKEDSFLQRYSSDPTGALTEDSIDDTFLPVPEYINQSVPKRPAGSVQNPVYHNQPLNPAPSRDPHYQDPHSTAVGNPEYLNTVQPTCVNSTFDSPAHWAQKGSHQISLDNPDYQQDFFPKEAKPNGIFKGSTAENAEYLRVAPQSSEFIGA
Sequence of EGFR-Del19/T790M/C797S kinase (P00533 25-1210 T790M/C797S limits assumed, form open): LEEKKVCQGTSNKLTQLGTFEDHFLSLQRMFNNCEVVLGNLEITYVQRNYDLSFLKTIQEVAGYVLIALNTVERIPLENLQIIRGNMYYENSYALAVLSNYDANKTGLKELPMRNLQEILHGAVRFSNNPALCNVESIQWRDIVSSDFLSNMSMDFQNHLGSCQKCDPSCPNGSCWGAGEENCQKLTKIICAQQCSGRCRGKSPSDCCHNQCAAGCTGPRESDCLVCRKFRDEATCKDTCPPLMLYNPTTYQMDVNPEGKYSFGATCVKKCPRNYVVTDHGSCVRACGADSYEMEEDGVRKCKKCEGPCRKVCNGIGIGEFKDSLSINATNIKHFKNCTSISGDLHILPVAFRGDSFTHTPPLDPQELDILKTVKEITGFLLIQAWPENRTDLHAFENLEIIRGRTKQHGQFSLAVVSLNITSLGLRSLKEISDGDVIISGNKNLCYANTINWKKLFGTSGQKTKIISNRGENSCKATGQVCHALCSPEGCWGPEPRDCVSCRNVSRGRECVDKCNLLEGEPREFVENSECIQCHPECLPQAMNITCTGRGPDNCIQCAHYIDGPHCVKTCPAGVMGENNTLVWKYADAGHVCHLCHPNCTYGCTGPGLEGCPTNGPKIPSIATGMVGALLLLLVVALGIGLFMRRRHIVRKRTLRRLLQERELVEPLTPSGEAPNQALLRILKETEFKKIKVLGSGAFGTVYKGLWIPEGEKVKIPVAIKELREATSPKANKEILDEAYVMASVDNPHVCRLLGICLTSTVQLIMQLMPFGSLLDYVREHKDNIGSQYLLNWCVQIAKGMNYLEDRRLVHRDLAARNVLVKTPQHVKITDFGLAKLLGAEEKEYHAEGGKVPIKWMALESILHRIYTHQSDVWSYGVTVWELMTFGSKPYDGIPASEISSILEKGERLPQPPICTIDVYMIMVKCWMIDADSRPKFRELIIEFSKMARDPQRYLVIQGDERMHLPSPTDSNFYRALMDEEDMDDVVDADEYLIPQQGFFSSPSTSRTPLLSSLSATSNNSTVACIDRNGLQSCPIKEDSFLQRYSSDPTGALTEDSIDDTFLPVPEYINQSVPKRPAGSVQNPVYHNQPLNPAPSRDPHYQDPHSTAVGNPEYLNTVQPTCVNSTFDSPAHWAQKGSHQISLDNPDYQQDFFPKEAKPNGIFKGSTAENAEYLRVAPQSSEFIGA

As to `CN1CCN(c2ccc(Nc3nc(N[C@H]4CC[C@@H](CO)CC4)c4c(C(=O)c5ccc(F)cc5)c[nH]c4n3)cc2)CC1` [Example 60], the IC50 was less than 0.1 µM in [1]; 0.1 to 1 µM with H1975 EGFR-L858R/T790M; 1 to 2 µM in test [3]; less than 10 nM in test [6]; less than 0.1 µM in the test with PC-9 EGFR-Del19; 0.1 to 1 µM in the test with A549 EGFR-WT. The IC50 in the test with A549 EGFR-WT (Table 5 numeric) was 0.23 µM. Further, the negative logarithm of the IC50 (pIC50) was 8.06 in test [2], 8.55 in test [4] and 7.15 in [5].
